Laboratory results: patent US9783536B2, “Nitrogen-containing heterocyclic compound or salt thereof” (FUJIFILM Corporation, priority 2013, dated 2017)
Structures can show the parent of a compound that is named as a salt. Where two headings read alike, the source gives them in different places.

How the values were obtained:
Format in all cases: biochemical
[1] = biological target: T1, GST fusion human ERK2 protein (Homo sapiens, UniProt P28482); test: ERK2 enzyme assay (1); details: read-out: ERK2 enzyme inhibitory activity (1)
T1 construct: purchased Carna Biosciences, Inc; host or cells: E. coli expression system
T1 sequence (P28482 whole entry, the tested form may be a part): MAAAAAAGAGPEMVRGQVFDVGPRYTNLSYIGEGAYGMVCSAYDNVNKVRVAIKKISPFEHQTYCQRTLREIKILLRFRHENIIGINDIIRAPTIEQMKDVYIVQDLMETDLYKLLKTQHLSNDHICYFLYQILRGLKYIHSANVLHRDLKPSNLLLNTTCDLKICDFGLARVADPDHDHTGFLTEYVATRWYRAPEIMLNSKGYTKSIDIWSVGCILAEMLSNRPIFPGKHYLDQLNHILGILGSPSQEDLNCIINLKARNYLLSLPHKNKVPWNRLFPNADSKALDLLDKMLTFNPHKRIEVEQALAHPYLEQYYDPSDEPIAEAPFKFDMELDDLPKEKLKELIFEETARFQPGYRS
Method: In an ERK2 enzyme assay, GLUTATHIONE S-TRANSFERASE (GST) FUSION HUMAN ERK2 PROTEIN (manufactured by Carna Biosciences, Inc.), which was produced by using an E. coli expression system, was used.
12 μL of a reaction liquid (2.5 nmol/L ERK2, 100 mmol/L Hepes, 10 mmol/L MgCl2, 1.5 mmol/L DTT, 0.003% Brij35, pH 7.5) including ERK2 protein and a test compound having a predetermined concentration was allowed to stand at room temperature for 15 minutes. Then, 3 μL of a mixture liquid of FL-PEPTIDE8 (5-FAM-IPTSPITTTYFFFKKK-COOH) (manufactured by Caliper Life Sciences), which is substrate peptide, and ATP (manufactured by Sigma-Aldrich Co. LLC.) was added thereto such that the final concentrations thereof became 4.25 μmol/L and 43.1 μmol/L, respectively, and an enzyme reaction was performed by allowing to stand at 25° C. for 120 minutes.
After the reaction, the enzyme reaction was stopped by adding 30 μL of a reaction stopper liquid (100 mmol/L HEPES, 11.2 mmol/L EDTA, 5.6% Brij35, pH 7.5) including a 0.5% COATING REAGENT 8 (trade name, manufactured by Perkin Elmer Inc.) thereto. Then, phosphorylated peptide and non-phosphorylated peptide were separated using LABCHIP EZ READER (trade name, manufactured by Caliper Life Sciences), and the porportion of the phosphorylated peptide was quantified.
The inhibitory activities of the compounds were evaluated using IC50 (50% inhibitory concentration). The IC50 was calculated using XLFIT (trade name, manufactured by ID Business Solutions).

human PI3Kα protein = biological target: T2, human PI3Kα protein (Homo sapiens, UniProt P42336); test: PI3Kα enzyme assay (ADP-Glo); details: read-out: PI3Kα enzyme inhibitory activity
T2 construct: purchased Carna Biosciences, Inc; host or cells: baculovirus expression system
T2 sequence (P42336 whole entry): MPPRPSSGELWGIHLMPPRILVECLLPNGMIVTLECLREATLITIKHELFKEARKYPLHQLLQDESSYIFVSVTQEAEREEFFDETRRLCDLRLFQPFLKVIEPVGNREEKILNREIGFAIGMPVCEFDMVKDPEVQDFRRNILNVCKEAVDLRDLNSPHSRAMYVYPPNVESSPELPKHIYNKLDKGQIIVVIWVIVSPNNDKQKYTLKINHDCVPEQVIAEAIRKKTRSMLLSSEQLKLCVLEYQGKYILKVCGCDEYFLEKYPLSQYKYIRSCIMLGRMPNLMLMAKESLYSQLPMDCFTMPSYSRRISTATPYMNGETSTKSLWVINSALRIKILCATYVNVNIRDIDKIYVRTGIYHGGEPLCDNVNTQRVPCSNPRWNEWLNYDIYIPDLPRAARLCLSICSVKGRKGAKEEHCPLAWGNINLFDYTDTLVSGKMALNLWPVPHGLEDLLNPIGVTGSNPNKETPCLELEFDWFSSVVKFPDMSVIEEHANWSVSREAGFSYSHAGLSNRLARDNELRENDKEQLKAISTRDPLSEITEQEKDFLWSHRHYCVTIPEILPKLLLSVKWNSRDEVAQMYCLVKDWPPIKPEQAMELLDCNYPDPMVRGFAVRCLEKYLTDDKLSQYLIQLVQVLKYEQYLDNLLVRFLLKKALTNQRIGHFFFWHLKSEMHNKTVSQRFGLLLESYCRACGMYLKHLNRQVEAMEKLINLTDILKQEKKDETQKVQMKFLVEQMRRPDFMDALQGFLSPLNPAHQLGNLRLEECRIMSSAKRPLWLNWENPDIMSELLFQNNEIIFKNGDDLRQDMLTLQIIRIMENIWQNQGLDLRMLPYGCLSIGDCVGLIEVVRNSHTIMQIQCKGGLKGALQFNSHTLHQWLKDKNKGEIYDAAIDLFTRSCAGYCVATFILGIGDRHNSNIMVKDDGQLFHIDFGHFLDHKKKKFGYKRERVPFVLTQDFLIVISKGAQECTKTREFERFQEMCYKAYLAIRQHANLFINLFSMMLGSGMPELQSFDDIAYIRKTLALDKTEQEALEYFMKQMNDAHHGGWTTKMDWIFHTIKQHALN
T2 sequence (P27986 whole entry partner): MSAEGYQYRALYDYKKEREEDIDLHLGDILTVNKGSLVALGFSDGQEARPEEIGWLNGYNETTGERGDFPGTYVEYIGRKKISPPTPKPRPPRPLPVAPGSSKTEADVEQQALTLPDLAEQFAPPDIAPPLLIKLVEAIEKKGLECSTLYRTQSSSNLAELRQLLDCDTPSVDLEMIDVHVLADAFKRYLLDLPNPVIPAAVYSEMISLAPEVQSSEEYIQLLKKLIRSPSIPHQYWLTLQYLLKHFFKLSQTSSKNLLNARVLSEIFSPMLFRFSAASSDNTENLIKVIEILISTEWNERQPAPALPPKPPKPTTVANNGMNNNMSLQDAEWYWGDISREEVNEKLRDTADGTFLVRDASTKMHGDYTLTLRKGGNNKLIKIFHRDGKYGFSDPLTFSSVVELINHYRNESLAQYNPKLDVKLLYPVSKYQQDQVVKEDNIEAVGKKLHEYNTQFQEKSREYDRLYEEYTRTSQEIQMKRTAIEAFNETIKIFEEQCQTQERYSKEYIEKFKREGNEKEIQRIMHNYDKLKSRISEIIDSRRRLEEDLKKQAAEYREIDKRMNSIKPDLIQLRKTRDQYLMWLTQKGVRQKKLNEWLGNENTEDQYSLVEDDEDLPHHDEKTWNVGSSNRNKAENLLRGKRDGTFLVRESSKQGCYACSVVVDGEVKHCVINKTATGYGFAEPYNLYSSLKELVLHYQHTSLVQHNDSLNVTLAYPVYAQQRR
In short: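 Biotinylated human PI3Kα (baculovirus-expressed, 4.5 nmol/L) pre-incubated 15 min with compound in Tris-HCl pH 7.5, MgCl2, BSA; reaction 60 min at 25° C with 50 μmol/L PIP2 and 100 μmol/L ATP final. ADP quantified by ADP-Glo luminescence; IC50 calculated.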

[2] = biological target: T1, GST fusion human ERK2 protein; test: ERK2 enzyme assay (2); details: read-out: ERK2 enzyme inhibitory activity (2)
In short: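 GST-tagged human ERK2 expressed in E. coli (1.25 nmol/L) was preincubated with compound for 15 min at room temperature in pH 7.5 Hepes buffer with MgCl2, DTT and Brij35. Reaction with FL-Peptide 8 (final 4.25 μmol/L) and ATP (final 1 mmol/L) ran 120 min at 25 °C; EDTA stopped it, and phosphorylated peptide was quantified by mobility-shift separation to derive IC50.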

[3] = 2.5 nmol/L ERK2, ATP 43.1 μmol/L
[4] = 4.5 nmol/L PI3Kα, PIP2 50 μmol/L, ATP 100 μmol/L

Row | SMILES | IC50 [1, 3] [µM] | IC50 ([1]; ERK2 enzyme assay (1)) [µM] | also measured
1 | Cn1cc(-c2cnc3ccc(Nc4nnc(C(F)(F)F)s4)nc3c2)cn1 [Example 0164] | < 1 | – | –
2 | CS(=O)(=O)N1CCCC(Nc2cnc3ccc(Nc4nnc(C5CCCC5)s4)nc3c2)C1 (centres unmarked) [Example 0109] | 1 to 10 | – | IC50 (human PI3Kα protein; [4]): < 1 µM
3 | O=C(c1ccc(Nc2cnc3ccc(Nc4nnc(C5CCCC5)s4)nc3c2)cc1)N1CCOCC1 [Example 0104] | < 1 | – | IC50 (human PI3Kα protein; [4]): 1 to 10 µM
4 | CN(C)Cc1nnc(Nc2ccc3ncc(-c4cnn(C)c4)cc3n2)s1 [Example 0166, 5-((Dimethylamino)methyl)-N-(7-(1-methyl-1H-pyrazol-4-yl)-1,5-naphthyridin-2-yl)-1,3,4-thiadiazole-2-amine] | < 1 | – | IC50 (human PI3Kα protein; [4]): 1 to 10 µM
5 | Brc1cnc2ccc(Nc3nnc(C4CCCC4)s3)nc2c1 [Example 0039, N-(7-bromo-1,5-naphthyridin-2-yl)-5-cyclopentyl-1,3,4-thiadiazole-2-amine] | < 1 | – | –
6 | c1ccc(CNc2cnc3ccc(Nc4nnc(C5CCCC5)s4)nc3c2)nc1 [Example 0068] | < 1 | – | IC50 (human PI3Kα protein; [4]): 1 to 10 µM
7 | Cn1cc(-c2cnc3ccc(Nc4nnc(C5CCC5)s4)nc3c2)cn1 [Example 0198, 5-Cyclobutyl-N-(7-(1-methyl-1H-pyrazol-4-yl)-1,5-naphthyridin-2-yl)-1,3,4-thiadiazole-2-amine] | < 1 | – | –
8 | c1nnc(Nc2ccc3ncc(Nc4cn[nH]c4)cc3n2)s1 [Example 0186, N^7-(1H-pyrazol-4-yl)-N^2-(1,3,4-thiadiazol-2-yl)-1,5-naphthyridine-2,7-diamine] | < 1 | – | IC50 (human PI3Kα protein; [4]): < 1 µM
9 | CC(C)(C)OC(=O)N1CCN(CCn2cc(-c3cnc4ccc(Nc5nnc(S(=O)(=O)Nc6ccccc6)s5)nc4c3)cn2)CC1 [Example 0180, tert-Butyl 4-(2-(4-(6-((5-(N-phenylsulfamoyl)-1,3,4-thiadiazol-2-yl)amino)-1,5-naphthyridin-3-yl)-1H-pyrazol-1-yl)ethyl)piperazine-1-carboxylate] | < 1 | – | IC50 (human PI3Kα protein; [4]): 1 to 10 µM
10 | Cc1nnc(Nc2ccc3ncc(N(C)c4cnn(C)c4)cc3n2)s1 [Example 0185, N^7-methyl-N^2-(5-methyl-1,3,4-thiadiazol-2-yl)-N^7-(1-methyl-1H-pyrazol-4-yl)-1,5-naphthyridine-2,7-diamine] | < 1 | – | IC50 (human PI3Kα protein; [4]): < 1 µM
11 | C#Cc1cnc2ccc(Nc3nnc(C4CCCC4)s3)nc2c1 [Example 0042, 5-cyclopentyl-N-(7-ethynyl-1,5-naphthyridin-2-yl)-1,3,4-thiadiazole-2-amine hydrochloride] | 10 to 50 | – | –
12 | Cn1cc(-c2cnc3ccc(Nc4nnc(Cc5ccccc5)s4)nc3c2)cn1 [Example 0165, 5-benzyl-N-(7-(1-methyl-1H-pyrazol-4-yl)-1,5-naphthyridin-2-yl)-1,3,4-thiadiazole-2-amine] | < 1 | – | IC50 (human PI3Kα protein; [4]): 10 to 50 µM
13 | FC(F)(F)CN1CCN(c2cnc3ccc(Nc4nnc(C5CCCC5)s4)nc3c2)CC1 [Example 0049] | 1 to 10 | – | –
14 | COc1ccc(Nc2ccc3ncc(-c4cnn(C)c4)cc3n2)nn1 [Example 0149] | 1 to 10 | – | –
15 | COc1ccc(-c2cnc3ccc(Nc4nnc(C5CCCC5)s4)nc3c2)cc1OC [Example 0203] | – | < 1 | –
16 | Cn1cc(-c2cnc3ccc(Nc4nnc(-c5ccccc5)s4)nc3c2)cn1 [Example 0028] | < 1 | – | –
17 | c1cncc(Oc2cnc3ccc(Nc4nnc(C5CCCC5)s4)nc3c2)c1 [Example 0044, 5-cyclopentyl-N-(7-((pyridin-3-yl)oxy)-1,5-naphthyridin-2-yl)-1,3,4-thiadiazole-2-amine hydrochloride] | 1 to 10 | – | –
18 | c1cn(-c2cc(Nc3cnc4ccc(Nc5nnc(C6CCCC6)s5)nc4c3)ccn2)nn1 [Example 0080] | < 1 | – | –
19 | Cn1cc(-c2cnc3ccc(Nc4nnc(C(N)=O)s4)nc3c2)cn1 [Example 0168, 5-((7-(1-Methyl-1H-pyrazol-4-yl)-1,5-naphthyridin-2-yl)amino)-1,3,4-thiadiazole-2-carboxamide] | < 1 | – | –
20 | Cc1nnc(Nc2ccc3ncc(-c4cnn(C)c4)cc3n2)o1 [Example 0031, 5-methyl-N-(7-(1-methyl-1H-pyrazol-4-yl)-1,5-naphthyridin-2-yl)-1,3,4-oxadiazole-2-amine hydrochloride] | 1 to 10 | – | –
21 | CSc1nnc(Nc2ccc3ncc(-c4cnn(C)c4)cc3n2)s1 [Example 0174, N-(7-(1-methyl-1H-pyrazol-4-yl)-1,5-naphthyridin-2-yl)-5-(methylthio)-1,3,4-thiadiazole-2-amine] | < 1 | – | –
22 | CC(C)c1cnnc(Nc2ccc3ncc(-c4cn(C)nc4COc4cccc(OCC(=O)N(C)C)c4)cc3n2)c1 [Example 0810] | – | – | IC50 ([2]; ERK2 enzyme assay (2)): < 1 µM; IC50 (human PI3Kα protein): < 1 µM
23 | CC(C)c1cnnc(Nc2ccc3ncc(NC4COC4)cc3n2)c1 [Example 0904] | – | – | IC50 [2]: 1 to 10 µM; IC50 (human PI3Kα protein): < 1 µM

Continued, in another order:

Row | IC50 [1, 3] [µM] | IC50 ([1]; ERK2 enzyme assay (1)) [µM] | SMILES | also measured
24 | – | < 1 | CC(C)c1cnnc(Nc2ccc3ncc(-c4ccccc4)cc3n2)c1 [Example 0408] | –
25 | – | < 1 | CC(C)c1cnnc(Nc2ccc3ncc(-c4cccnc4)cc3n2)c1 [Example 0407] | IC50 (human PI3Kα protein): 1 to 10 µM
26 | – | 1 to 10 | CC(C)c1nnc(Nc2ccc3nccc(-c4cnccn4)c3n2)s1 [Example 0282] | IC50 (human PI3Kα protein): 1 to 10 µM
27 | – | < 1 | COc1cccc(-c2ccnc3ccc(Nc4nnc(C(C)C)s4)nc23)c1 [Example 0271] | –
28 | – | < 1 | c1nc2ccc(Nc3nnc(C4CCCC4)s3)nc2cc1NC1CCOCC1 [Example 0312] | IC50 (human PI3Kα protein): < 1 µM
29 | – | < 1 | CC(C)c1cnnc(Nc2ccc3ncc(N4CCOCC4)cc3n2)c1 [Example 0392, N-(5-isopropylpyridazin-3-yl)-7-morpholino-1,5-naphthyridine-2-amine] | IC50 (human PI3Kα protein): < 1 µM
30 | – | < 1 | Nc1nnc(Nc2ccc3ncc(-c4cnn(CCN5CCOCC5)c4)cc3n2)s1 [Example 0254, N^2-(7-(1-(2-morpholinoethyl)-1H-pyrazol-4-yl)-1,5-naphthyridin-2-yl)-1,3,4-thiadiazole-2,5-diamine] | IC50 (human PI3Kα protein): < 1 µM
31 | – | < 1 | COCCCNc1cnc2ccc(Nc3nnc(C4CCCC4)s3)nc2c1 [Example 0307] | IC50 (human PI3Kα protein): < 1 µM
32 | – | < 1 | c1cc(Nc2cnc3ccc(Nc4nnc(C5CCCC5)s4)nc3c2)ccn1 [Example 0208] | IC50 (human PI3Kα protein): < 1 µM
33 | – | < 1 | COc1cccc(-c2cnc3ccc(Nc4nnc(C5CCCC5)s4)nc3c2)c1 [Example 0212] | –
34 | – | < 1 | Cc1noc(C)c1-c1cnc2ccc(Nc3nnc(C4CCCC4)s3)nc2c1 [Example 0216] | –
35 | – | < 1 | FC(F)(F)CN1CCC(n2cc(-c3cnc4ccc(Nc5nnc(C6CCCC6)s5)nc4c3)cn2)CC1 [Example 0340, 5-cyclopentyl-N-(7-(1-(1-(2,2,2-trifluoroethyl)piperidin-4-yl)-1H-pyrazol-4-yl)-1,5-naphthyridin-2-yl)-1,3,4-thiadiazole-2-amine] | –
36 | – | < 1 | CCOC(=O)c1nnc(Nc2ccc3ncc(-c4cnn(C)c4)cc3n2)s1 [Example 0230] | –
37 | – | < 1 | c1ccc(-c2cnc3ccc(Nc4nnc(C5CCCC5)s4)nc3c2)cc1 [Example 0218, 5-Cyclopentyl-N-(7-phenyl-1,5-naphthyridin-2-yl)-1,3,4-thiadiazole-2-amine] | –
38 | – | 1 to 10 | CC(C)(C)OC(=O)N1CCC(c2cnc3ccc(Nc4nnc(C5CCCC5)s4)nc3c2)CC1 [Example 0331, tert-butyl 4-(6-((5-cyclopentyl-1,3,4-thiadiazol-2-yl)amino)-1,5-naphthyridin-3-yl)piperidine-1-carboxylate] | –
39 | – | < 1 | COc1ccccc1-c1cnc2ccc(Nc3nnc(C4CCCC4)s3)nc2c1 [Example 0211] | –
40 | – | < 1 | CC(C)(C)OC(=O)N1CC=C(c2cnc3ccc(Nc4nnc(C5CCCC5)s4)nc3c2)CC1 [Example 0328, tert-butyl 4-(6-((5-cyclopentyl-1,3,4-thiadiazol-2-yl)amino)-1,5-naphthyridin-3-yl)-5,6-dihydropyridine-1(2H)-carboxylate] | –
41 | – | < 1 | COc1cc(-c2cnc3ccc(Nc4nnc(C5CCCC5)s4)nc3c2)cc(OC)c1OC [Example 0204] | –
42 | – | < 1 | COc1ccc(-c2cnc3ccc(Nc4nnc(C5CCCC5)s4)nc3c2)cc1 [Example 0213] | –
